Tests used:
[1] = test system: Neural-crest derived PC12 cells; test: APOPercentage apoptosis assay, serum-deprivation induced apoptosis of PC12 cells; type: cell-based, rat; conditions: Rattus norvegicus, PC-12, absence of serum 12 hours, ApoPercentage assay (FIG. 2), read-out: IC50 of anti-apoptotic, cytoprotective effect
Protocol: Neural-crest derived PC12 cells were maintained in culture at 5% CO2, at 37° C., in RPMI 1640 medium containing 2 mM L-glutamine, 15 mM HEPES, 100 units/ml penicillin, 0.1 mg/ml streptomycin, 10% horse serum, and 5% foetal calf serum. Serum free medium was supplemented with 1% bovine serum albumin (BSA). Different steroids, used at various concentrations, were initially diluted in ethanol. The final concentration of ethanol in each well, including controls was 0.01%. Conjugate DHEA-BSA was initially diluted in Phosphate Buffer Saline (PBS).
Cells were cultured in the absence of serum for 12 hours, supplemented with DHEA and various synthetic spiro neurosteroids at 10 nM. Cell apoptosis was quantitated with two different methods: The APOPercentage Apoptosis Assay (Biocolor Ltd., Belfast, N. Ireland) was used to quantify apoptosis, according to the manufacturer's instructions. Apoptosis was quantified following cell lysis by measuring the dye incorporated in apoptotic cells at 550 nm (reference filter 620 nm) using a colour filter microplate colorimeter (Dynatech MicroElisa reader, Chantilly, Va.) (see FIGS. 1 and 2). FACS Analysis: FACS analysis of apoptotic cells was performed according to our protocol (Proc Natl Acad Sci USA 101,8209 (2004)). Flow cytometry was performed with FACScan (Becton Dickinson, Heidelberg, Germany) and the results were analysed with the FACScan and Cell Quest softwares (see FIG. 3).

[2] = test system: Bcl-2 and Bcl-xL proteins; test: Western blot of anti-apoptotic Bcl-2 and Bcl-xL proteins in serum-deprived PC12 cells; type: cell-based, rat; conditions: 10 nM neurosteroid (FIG. 4)
Protocol: Neural-crest derived PC12 cells were cultured for 8 hours in the absence of serum, but supplemented with 10 nM of various neurosteroids. At the end of incubation cell lysates were subjected to electrophoresis through a 12% SDS-polyacrylamide gel. Then, proteins were transferred to nitrocellulose membranes, which were processed according to standard Western blotting procedures. To detect protein levels, membranes were incubated with the appropriate antibodies: Bcl-2, (Santa Cruz Biotechnology Inc., Santa Cruz, Calif., dilution 1:100) Bcl-xL (Cell Signalling Technology Inc., Beverly, Mass., dilution 1:100). A PC-based Image Analysis program was used to quantify the intensity of each band (Image Analysis, Inc., Ontario, Canada). To normalize for protein content, the blots were stripped and stained with anti-actin antibodies (Chemicon, Temecula, Calif., dilution 1:400); the concentration of each target protein was normalized versus actin.

[3] = test system: DHEA specific membrane receptors; test: [3H]DHEA competition binding on isolated PC12 cell membranes; set-up: species or system rat
Protocol: PC12 rat sympathoadrenal cells were cultured in 225 cm^2 flasks and, after washing twice with PBS, they were detached from the flasks by vigorous shaking. After a centrifugation at 1500 g, they were homogenized by sonication, in a 50 mM Tris-HCl buffer pH 7.4 at 4° C., containing freshly added protease inhibitors (1 mM PMSF and 1 μg/ml aprotinin). Unbroken cells were removed by centrifugation at 1500 g (10 min at 4° C.), and membranes were collected by centrifuging at 102,000 g for 1 hr at 4° C. Membranes were washed once with Tris-HCl, briefly acidified at 4° C. (for 3 min) with 50 mM glycine (pH 5.0), and re-suspended in the same buffer. Protein content was assayed by the method of Bradford, using reagents from Bio-Rad (Hercules, Calif.). Membranes (at a final concentration of 2 mg/ml) were incubated with 5 nM [^3H]DHEA, in the absence (to determine the total binding) or presence of unlabeled neurosteroids and their synthetic spiro analogs, at concentrations varying from 10^−12 to 10^−6 M and at a final volume of 100 μl, in Tris-HCl buffer (50 mM, pH 7.4). Following a […] incubation in a water bath, at 37° C., membranes were collected on GF/B filters, prewet in 0.5% PEI solution at 4° C. The filters were washed three times with ice-cold Tris-HCl, dried, supplemented with scintillation medium (Sigma Hellas, Athens, Greece) and counted in a β-scintillation counter (Perkin Elmer, Foster City, Calif.) with 60% efficiency for Tritium.

## C[C@]12CC[C@H](O)CC1=CCC1C2CC[C@@]2(C)C1CC[C@@]21CO1 (stereo partly drawn) [BNN-50, 17β-spiro-[5-androsten-17,2′-oxiran]-3β-ol]
[1]
  IC50: 0.088 nM
[2]
  levels of anti-apoptotic Bcl-2 and Bcl-xL proteins: preventing this effect
[3]; at 1 μM, PC12 cell membranes
  displacement of specific [3H]DHEA binding: approximately 60%
[3]; isolated PC12 cell membranes, 5 nM [3H]DHEA (FIG. 5)
  Kd: 0.016 nM

— patent US9777037B2, “Neurosteroid compounds” (BIONATURE E. A. LTD., priority 2007, dated 2017)
